# Laboratory results as given in patent US20040023312A1, “Method for diagnosing huntingtons disease and means of treating it” (priority 2002, published 2004).
# Where two headings read alike, the source gives them in different places.
# How the values were obtained:
# [1] = in vivo; cited from earlier work
# A2A receptor = A2A receptor (Rattus norvegicus, UniProt P30543); settings: for cAMP formation with NECA + antagonist: 100 nM NECA, ST14A cells
# adenyl cyclase = experiment: cAMP levels stimulated by forskolin in ST14A parental cells and huntingtin clones; type: cell-based, rat
# G-proteins = experiment: cAMP response induced by GTP-gammaS, a direct stimulator of G-proteins; type: cell-based, rat; settings: 10 μM GTP-gammaS; parental clone
# Text: This concept is set down in the next page.
# [2] = focal ischaemia model; cited from earlier work
# N548wt cells = experiment: Serum-deprivation induced cell death (mitochondrial function); settings: antagonist 100 nM, 24 h serum-free medium
# Text: Cell death has been induced by shifting cultures to serum-free medium in the absence (black columns) or presence of the indicated A2A receptor antagonists. Data are the mean±S.E. of 6 experiments run in triplicate and are expressed as % of total cell death. *p<0.05 vs. control, Scheffe's test.
# To assess the functional importance of the aberrant A2A receptor phenotype and its possible correlation with susceptibility to cell death, we have performed experiments where the influence of A2A receptor antagonists on the survival rate of ST14A cells have been specifically determined.
# A2A receptor, sequence (P30543 whole entry): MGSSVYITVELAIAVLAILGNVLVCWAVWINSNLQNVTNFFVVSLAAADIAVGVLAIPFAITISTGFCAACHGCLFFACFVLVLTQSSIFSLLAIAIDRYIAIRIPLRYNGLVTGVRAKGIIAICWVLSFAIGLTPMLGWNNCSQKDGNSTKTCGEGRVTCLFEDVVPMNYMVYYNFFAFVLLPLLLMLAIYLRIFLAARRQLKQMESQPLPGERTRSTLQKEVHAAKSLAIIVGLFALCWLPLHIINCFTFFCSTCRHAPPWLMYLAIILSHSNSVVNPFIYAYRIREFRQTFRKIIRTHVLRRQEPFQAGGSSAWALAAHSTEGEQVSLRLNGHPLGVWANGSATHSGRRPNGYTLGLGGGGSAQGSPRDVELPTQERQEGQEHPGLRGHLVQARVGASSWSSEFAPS
compound,measurement,setting,value
CCCCC#Cc1nc(N)c2ncn([C@@H]3O[C@H](C(=O)NCC)[C@@H](O)[C@H]3O)c2n1 [2-hexinyl-NECA],convulsions induced by pentyl-tetrazole,[1],markedly reduces
"Cn1c(=O)c2c(ncn2C)n(C)c1=O [Caffeine, caffeine]",cAMP formation with NECA + antagonist,A2A receptor; antagonist 10 μM,30 ± 3 pmole/10^5 cells
same,cAMP formation with NECA + antagonist,A2A receptor; antagonist 100 μM,27 ± 3 pmole/10^5 cells
same,cAMP formation with NECA + antagonist,A2A receptor; antagonist 1 mM,24 ± 3 pmole/10^5 cells
same,antagonism of the increases in cAMP induced by NECA,"A2A receptor; NECA 100 nM, parental clone and engineered clones",completely antagonizing
C=C[C@@]1(C)CC(=O)[C@]2(O)[C@@]3(C)[C@@H](O)CCC(C)(C)[C@@H]3[C@H](O)[C@H](OC(C)=O)[C@@]2(C)O1 [Forskolin],cyclic AMP levels stimulated by forskolin,"adenyl cyclase; Forskolin 1 μM + Ro201724 0.5 mM, FL mu cells",78 ± 7 pmoles/10^5 cells
same,cyclic AMP levels stimulated by forskolin,"adenyl cyclase; Forskolin 1 μM + Ro201724 0.5 mM, FL wt cells",60 ± 6 pmoles/10^5 cells
same,cyclic AMP levels stimulated by forskolin,"adenyl cyclase; Forskolin 1 μM + Ro201724 0.5 mM, N548 wt cells",63 ± 6 pmoles/10^5 cells
same,cyclic AMP levels stimulated by forskolin,"adenyl cyclase; Forskolin 1 μM + Ro201724 0.5 mM, ST14A cells",58 ± 4 pmoles/10^5 cells
same,cyclic AMP levels stimulated by forskolin,"adenyl cyclase; Forskolin 1 μM, FL mu cells",55 ± 5 pmoles/10^5 cells
same,cyclic AMP levels stimulated by forskolin,"adenyl cyclase; Forskolin 1 μM, FL wt cells",54 ± 6 pmoles/10^5 cells
same,cyclic AMP levels stimulated by forskolin,"adenyl cyclase; Forskolin 1 μM, N548 wt cells",47 ± 3 pmoles/10^5 cells
same,cyclic AMP levels stimulated by forskolin,"adenyl cyclase; Forskolin 1 μM, ST14A cells",45 ± 5 pmoles/10^5 cells
Nc1nc2c(ncn2[C@@H]2O[C@H](COP(=O)(O)OP(=O)(O)OP(O)(O)=S)[C@@H](O)[C@H]2O)c(=O)[nH]1 [GTP-gammaS],cAMP levels in the presence of GTP-gammaS,G-proteins,65±2 pmoles/10^5 cells
"Nc1nc2c(cnn2CCc2ccccc2)c2nc(-c3ccco3)nn12 [SCH 58261, 5-amino-7-(2-phenylethyl)-2-(2-furyl)pyrazolo[4,3-e]-1,2,4-triazolo [1,5-c]pyrimidine]",cortical damage associated with occlusion of the middle cerebral artery,[2],significantly reducing
same,effect on extent of serum-deprivation induced cell death,N548wt cells,did not significantly affect
"Nc1nc(NCCc2ccc(O)cc2)nc2nc(-c3ccco3)nn12 [ZM 241385, 4-[2-[[7-amino-2-(2-furyl)[1,2,4]triazolo[2,3-a][1,3,5]triazin-5-yl]amino]ethyl]phenol]",effect on extent of serum-deprivation induced cell death,N548wt cells,did not significantly affect
